Results taken from publication PMC4490784, “Compensatory induction of MYC expression by sustained CDK9 inhibition via a BRD4-dependent mechanism” (eLife, 2015).

Key:
HeLa cells = assay: Immunoblotting of MCL-1 and PARP in HeLa cell lysates; format: cell-based, human; conditions: 8 hr
Experimental: Figure 1. i-CDK9 is a potent and selective CDK9 inhibitor that elicits cellular responses indicative of P-TEFb inhibition. (A and B) Structures and selectivity profiles of i-CDK9 (A) and falvopiridol (B). […] (C) In vitro kinase reactions containing affinity-purified CDK9-F-CycT or CDK12-F-CycK and GST-CTD as a substrate were conducted in the presence of the indicated concentrations of i-CDK9. pSer2 and the Flag-tagged kinase in each reaction were detected by Western blotting with anti-pSer2 and anti-Flag antibodies, respectively. (D) HeLa cells were treated for 8 hr with DMSO or the indicated concentrations of i-CDK9. Total cell lysates were examined by immunoblotting for the proteins labeled on the left. DOI: http://dx.doi.org/10.7554/eLife.06535.003 Figure 1—source data 1. Selectivity profile of i-CDK9. DOI: http://dx.doi.org/10.7554/eLife.06535.004 Figure 1—figure supplement 1. Recombinant CDK12-CycK is less sensitive to inhibition by i-CDK9.
Inhibition of phosphorylation of both Pol II CTD and SPT5 is expected to block transcriptional elongation, which will effectively decrease the production of labile proteins from short-lived transcripts.

SRC = target: T1, SRC (Homo sapiens, UniProt P12931); assay: biochemical binding or enzymatic assay; conditions: Novartis
T1 construct: purchased DiscoveRx KINOMEscan
Experimental: (§1) Finally, the selectivity profile of i-CDK9 toward other non-CDK kinases was also assessed using the KINOMEscan platform. […] Except for CLK4, for which no suitable assay was available, the rest of the kinases plus a selected group of others were re-examined for the concentration-dependent effect of i-CDK9 in either functional kinase assays or binding assays. […] Indeed, it has recently been reported that DYRK1A acts as a Pol II CTD Kinase at its target gene promoters ([Di Vona et al., 2015]).

AURKA = target: T2, AURKA (Homo sapiens, UniProt O14965); assay: biochemical binding or enzymatic assay; conditions: Novartis
T2 construct: purchased DiscoveRx KINOMEscan
T2 sequence (O14965 1-403): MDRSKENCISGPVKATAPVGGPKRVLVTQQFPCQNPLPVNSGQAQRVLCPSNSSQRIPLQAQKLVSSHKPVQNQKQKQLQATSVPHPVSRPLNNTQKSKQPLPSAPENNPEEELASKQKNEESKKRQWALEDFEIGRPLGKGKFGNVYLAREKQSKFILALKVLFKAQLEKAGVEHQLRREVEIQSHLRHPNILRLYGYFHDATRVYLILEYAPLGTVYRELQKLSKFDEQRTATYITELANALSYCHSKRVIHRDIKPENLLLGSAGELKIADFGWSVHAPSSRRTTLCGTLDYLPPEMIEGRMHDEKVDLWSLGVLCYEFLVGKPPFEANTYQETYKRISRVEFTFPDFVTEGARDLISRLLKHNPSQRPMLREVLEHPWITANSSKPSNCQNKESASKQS
Experimental: as §1

TAOK3 = target: T3, TAOK3 (Homo sapiens, UniProt Q9H2K8); assay: biochemical binding or enzymatic assay; conditions: Millipore
T3 construct: purchased DiscoveRx KINOMEscan
T3 sequence (Q9H2K8 1-898): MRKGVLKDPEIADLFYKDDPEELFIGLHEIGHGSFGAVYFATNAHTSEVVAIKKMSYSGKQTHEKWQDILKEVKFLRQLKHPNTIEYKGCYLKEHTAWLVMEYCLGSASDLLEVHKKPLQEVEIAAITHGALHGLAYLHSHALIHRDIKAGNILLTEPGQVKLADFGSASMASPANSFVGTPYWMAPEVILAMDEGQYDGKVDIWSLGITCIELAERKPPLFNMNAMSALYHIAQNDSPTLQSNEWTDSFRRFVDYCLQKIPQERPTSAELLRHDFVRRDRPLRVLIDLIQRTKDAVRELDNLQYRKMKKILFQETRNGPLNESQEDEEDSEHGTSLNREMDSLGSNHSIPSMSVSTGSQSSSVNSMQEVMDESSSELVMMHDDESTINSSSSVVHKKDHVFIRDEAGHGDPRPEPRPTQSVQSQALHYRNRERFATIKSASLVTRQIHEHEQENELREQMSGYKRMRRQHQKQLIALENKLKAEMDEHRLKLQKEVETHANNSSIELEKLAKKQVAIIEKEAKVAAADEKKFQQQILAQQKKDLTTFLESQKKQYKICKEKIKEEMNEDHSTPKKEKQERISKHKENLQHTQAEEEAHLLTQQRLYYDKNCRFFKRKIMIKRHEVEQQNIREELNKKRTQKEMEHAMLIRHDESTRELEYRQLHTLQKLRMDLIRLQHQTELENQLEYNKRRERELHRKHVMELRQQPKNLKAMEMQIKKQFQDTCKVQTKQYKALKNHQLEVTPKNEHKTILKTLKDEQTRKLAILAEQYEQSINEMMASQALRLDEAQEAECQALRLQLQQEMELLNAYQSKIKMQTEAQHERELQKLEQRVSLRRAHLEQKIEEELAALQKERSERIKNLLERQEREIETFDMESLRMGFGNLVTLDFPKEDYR
Experimental: as §1

SYK = target: T4, SYK (Homo sapiens, UniProt P43405); assay: biochemical binding or enzymatic assay; conditions: Novartis
T4 construct: purchased DiscoveRx KINOMEscan
Experimental: as §1

CLK1 = target: T5, CLK1 (Homo sapiens, UniProt P49759); assay: biochemical binding or enzymatic assay; conditions: Invitrogen
T5 construct: purchased DiscoveRx KINOMEscan
Experimental: as §1

PCTK1 = target: T6, PCTK1 (Homo sapiens, UniProt Q00536); assay: biochemical binding or enzymatic assay; conditions: Ambit
T6 construct: purchased DiscoveRx KINOMEscan
Experimental: as §1

MKNK2 = target: T7, MKNK2 (Homo sapiens, UniProt Q9HBH9); assay: biochemical binding or enzymatic assay; conditions: Novartis
T7 construct: purchased DiscoveRx KINOMEscan
Experimental: as §1

IRAK4 = IRAK4 (Homo sapiens, UniProt Q9NWZ3); assay: biochemical binding or enzymatic assay; conditions: Novartis
Experimental: as §1

ERK1 = target: T8, ERK1 (Homo sapiens, UniProt P27361); assay: biochemical binding or enzymatic assay; conditions: Novartis
T8 construct: purchased DiscoveRx KINOMEscan
Experimental: as §1

EPHA4 = target: T9, EPHA4 (Homo sapiens, UniProt P54764); assay: biochemical binding or enzymatic assay; conditions: Novartis
T9 construct: purchased DiscoveRx KINOMEscan
Experimental: as §1

IRAK4, sequence (Q9NWZ3 whole entry): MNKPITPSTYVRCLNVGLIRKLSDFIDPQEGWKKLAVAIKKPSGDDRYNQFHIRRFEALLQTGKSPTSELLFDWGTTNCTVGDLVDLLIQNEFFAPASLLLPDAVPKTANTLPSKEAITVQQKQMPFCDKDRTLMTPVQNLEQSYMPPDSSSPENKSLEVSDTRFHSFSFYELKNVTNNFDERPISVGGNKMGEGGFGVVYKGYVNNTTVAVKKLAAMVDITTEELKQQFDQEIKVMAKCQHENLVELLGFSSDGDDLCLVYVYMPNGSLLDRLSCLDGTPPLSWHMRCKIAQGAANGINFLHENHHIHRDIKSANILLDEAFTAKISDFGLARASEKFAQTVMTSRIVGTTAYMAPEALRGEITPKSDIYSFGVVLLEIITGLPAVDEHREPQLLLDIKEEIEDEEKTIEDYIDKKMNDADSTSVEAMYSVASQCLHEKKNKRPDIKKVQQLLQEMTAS
T5 sequence (P49759 whole entry): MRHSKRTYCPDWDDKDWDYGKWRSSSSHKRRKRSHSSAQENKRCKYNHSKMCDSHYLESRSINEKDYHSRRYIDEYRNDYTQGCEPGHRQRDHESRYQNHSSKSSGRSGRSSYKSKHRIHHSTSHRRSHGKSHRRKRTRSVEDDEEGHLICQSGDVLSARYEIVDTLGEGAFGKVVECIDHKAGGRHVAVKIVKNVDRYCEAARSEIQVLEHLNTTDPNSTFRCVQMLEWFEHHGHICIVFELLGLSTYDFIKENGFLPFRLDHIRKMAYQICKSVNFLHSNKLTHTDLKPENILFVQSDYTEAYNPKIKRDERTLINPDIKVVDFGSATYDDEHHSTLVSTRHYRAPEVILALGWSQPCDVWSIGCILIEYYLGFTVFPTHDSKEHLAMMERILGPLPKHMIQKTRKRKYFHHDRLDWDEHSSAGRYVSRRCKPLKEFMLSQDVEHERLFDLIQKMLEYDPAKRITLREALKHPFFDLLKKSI
T9 sequence (P54764 20-986): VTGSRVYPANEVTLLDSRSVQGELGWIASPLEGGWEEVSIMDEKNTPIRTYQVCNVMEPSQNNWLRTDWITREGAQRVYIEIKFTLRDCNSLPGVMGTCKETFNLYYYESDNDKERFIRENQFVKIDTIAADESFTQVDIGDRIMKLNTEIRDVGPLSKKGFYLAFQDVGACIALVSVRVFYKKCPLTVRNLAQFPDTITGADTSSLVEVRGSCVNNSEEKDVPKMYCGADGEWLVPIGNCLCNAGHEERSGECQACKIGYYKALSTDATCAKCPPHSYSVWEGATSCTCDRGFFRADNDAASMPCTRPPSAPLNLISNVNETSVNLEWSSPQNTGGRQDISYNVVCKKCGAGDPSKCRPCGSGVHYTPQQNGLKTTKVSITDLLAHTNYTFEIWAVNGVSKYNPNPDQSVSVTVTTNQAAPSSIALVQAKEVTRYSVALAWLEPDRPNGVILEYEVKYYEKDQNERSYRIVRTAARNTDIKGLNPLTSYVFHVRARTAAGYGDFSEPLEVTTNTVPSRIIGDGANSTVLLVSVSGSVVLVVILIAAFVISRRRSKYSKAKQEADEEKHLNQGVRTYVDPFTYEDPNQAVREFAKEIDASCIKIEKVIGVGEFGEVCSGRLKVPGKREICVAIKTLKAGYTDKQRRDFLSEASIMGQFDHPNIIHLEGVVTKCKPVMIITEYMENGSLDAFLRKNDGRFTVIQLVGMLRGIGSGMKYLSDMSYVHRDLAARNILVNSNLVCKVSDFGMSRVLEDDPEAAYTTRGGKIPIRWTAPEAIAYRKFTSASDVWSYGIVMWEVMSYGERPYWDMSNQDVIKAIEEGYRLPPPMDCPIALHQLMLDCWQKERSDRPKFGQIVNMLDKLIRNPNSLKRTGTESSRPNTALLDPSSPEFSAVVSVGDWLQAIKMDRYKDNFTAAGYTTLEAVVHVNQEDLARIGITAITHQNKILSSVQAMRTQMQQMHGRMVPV
T1 sequence (P12931 whole entry): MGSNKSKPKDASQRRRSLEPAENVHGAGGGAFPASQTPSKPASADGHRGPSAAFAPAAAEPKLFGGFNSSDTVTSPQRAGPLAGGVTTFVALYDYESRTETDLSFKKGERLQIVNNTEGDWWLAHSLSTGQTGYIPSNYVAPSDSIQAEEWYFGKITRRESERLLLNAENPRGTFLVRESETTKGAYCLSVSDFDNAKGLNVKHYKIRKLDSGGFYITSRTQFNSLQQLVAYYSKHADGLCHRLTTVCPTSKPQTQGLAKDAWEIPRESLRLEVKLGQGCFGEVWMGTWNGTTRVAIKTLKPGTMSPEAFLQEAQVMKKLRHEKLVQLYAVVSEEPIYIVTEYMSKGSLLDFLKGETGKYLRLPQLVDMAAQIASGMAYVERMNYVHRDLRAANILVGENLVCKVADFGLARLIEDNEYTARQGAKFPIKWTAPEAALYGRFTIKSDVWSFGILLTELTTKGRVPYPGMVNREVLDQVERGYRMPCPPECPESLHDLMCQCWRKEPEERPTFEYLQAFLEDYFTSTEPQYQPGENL
T8 sequence (P27361 whole entry): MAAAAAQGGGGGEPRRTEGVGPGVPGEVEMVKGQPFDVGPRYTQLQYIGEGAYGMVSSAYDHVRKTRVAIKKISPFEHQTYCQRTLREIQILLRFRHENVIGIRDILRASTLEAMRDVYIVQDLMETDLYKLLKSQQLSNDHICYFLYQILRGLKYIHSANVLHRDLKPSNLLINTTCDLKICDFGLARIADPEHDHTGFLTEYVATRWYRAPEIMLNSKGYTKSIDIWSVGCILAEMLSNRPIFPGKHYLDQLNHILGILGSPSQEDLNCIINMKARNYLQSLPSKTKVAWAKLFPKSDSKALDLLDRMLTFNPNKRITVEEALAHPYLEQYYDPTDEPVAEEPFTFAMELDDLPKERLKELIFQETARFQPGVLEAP
T6 sequence (Q00536 whole entry): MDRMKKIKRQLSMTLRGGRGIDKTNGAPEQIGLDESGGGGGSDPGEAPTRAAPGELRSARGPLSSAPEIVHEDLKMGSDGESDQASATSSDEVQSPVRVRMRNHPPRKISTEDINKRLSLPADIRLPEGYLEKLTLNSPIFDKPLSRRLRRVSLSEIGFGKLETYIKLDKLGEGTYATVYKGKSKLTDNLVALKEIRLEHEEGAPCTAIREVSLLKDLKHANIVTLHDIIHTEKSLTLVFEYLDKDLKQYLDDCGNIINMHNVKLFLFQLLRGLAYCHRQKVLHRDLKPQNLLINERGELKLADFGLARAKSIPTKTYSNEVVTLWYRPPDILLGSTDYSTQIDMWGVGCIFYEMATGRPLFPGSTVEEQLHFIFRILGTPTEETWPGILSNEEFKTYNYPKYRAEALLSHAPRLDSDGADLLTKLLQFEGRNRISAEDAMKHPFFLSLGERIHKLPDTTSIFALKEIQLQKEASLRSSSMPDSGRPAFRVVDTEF
T7 sequence (Q9HBH9 whole entry): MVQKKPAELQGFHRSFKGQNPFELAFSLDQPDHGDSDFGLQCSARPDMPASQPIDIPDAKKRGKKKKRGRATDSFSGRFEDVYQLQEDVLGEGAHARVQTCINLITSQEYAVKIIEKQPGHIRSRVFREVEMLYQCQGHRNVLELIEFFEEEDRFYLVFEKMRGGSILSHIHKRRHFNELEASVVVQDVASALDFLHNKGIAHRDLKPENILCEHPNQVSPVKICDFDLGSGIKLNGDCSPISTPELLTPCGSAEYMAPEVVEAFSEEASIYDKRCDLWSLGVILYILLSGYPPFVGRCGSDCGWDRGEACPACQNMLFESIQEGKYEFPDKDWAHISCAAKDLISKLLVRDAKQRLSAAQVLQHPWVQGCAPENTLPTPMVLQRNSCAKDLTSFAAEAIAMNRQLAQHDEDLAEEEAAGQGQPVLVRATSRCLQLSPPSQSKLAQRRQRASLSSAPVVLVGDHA

`N[C@H]1CC[C@H](Nc2cc(-c3cccc(NCc4cccc(F)c4)n3)c(Cl)cn2)CC1` [i-CDK9, N2′-(trans-4-aminocyclohexyl)-5′-chloro-N6-(3-fluorobenzyl)-2,4′-bipyridine-2′,6-diamine] was tested. Which “cleavage of PARP” value (HeLa cells) did it give?
Its value is “induced proteolytic cleavage”.

What about the “expression of MCL-1” value (HeLa cells) of the same compound?
Its value is “markedly down-regulated”.

And the IC50 (SRC)?
The IC50 was greater than 10 µM.

What about the IC50 (AURKA) of the same compound?
The IC50 was greater than 10 µM.

What about the IC50 (TAOK3) of the same compound?
The IC50 was 1.08 µM.

What about the IC50 (SYK) of the same compound?
Its IC50 is greater than 10 µM.

What about the IC50 (CLK1) of the same compound?
The IC50 was 0.525 µM.

And the IC50 (PCTK1)?
Its IC50 is greater than 0.14 µM.

What about the IC50 (MKNK2) of the same compound?
The IC50 was greater than 10 µM.

And the IC50 (IRAK4)?
Its IC50 is greater than 10 µM.

And the IC50 (ERK1)?
The IC50 was greater than 10 µM.

What about the IC50 (EPHA4) of the same compound?
Its IC50 is greater than 10 µM.
